Among the data in BindingDB's records for doi:10.1002/cbic.200800782 (Philipps-UniversitÄT Marburg, 2009) are Ki values, retold here.

Usually Ki stands for a measure of affinity in units of concentration, obtained from inhibition or displacement. Higher therefore signals lower affinity.

In this assay the target is Queuine tRNA-ribosyltransferase (Zymomonas mobilis subsp. mobilis (strain ATCC 31821 / ZM4 / CP4), UniProt P28720). In words: Enzyme Assay. Conditions: pH 7.3. From the text: Inhibition assay using tRNA-guanine transglycosylase (TGT).
Queuine tRNA-ribosyltransferase, sequence (P28720 whole entry): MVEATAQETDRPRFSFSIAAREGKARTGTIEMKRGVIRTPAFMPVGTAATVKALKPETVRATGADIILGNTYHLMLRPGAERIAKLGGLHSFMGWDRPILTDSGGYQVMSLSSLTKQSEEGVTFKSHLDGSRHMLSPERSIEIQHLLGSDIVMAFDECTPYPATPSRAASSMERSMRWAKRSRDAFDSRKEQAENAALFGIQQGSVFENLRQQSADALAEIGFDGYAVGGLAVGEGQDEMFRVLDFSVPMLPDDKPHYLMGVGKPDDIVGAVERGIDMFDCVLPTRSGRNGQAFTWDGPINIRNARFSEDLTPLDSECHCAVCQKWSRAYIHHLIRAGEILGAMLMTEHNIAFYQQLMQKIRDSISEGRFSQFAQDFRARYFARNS
As to `CN(C)c1ccc2c(=O)[nH]c(N)nc2c1` [Quinazolinone scaffold, 1], the affinity corresponds to a Ki of 31000 nM.
`CNc1nc2cc3c(=O)[nH]c(N)nc3cc2[nH]1` [lin-benzoguanine scaffold, 6]: affinity was put at a Ki of 5.8 nM.
Molecule `Nc1nc2cc3nc(N)[nH]c3cc2c(=O)[nH]1` [lin-benzoguanine scaffold, 5] displayed a Ki of 77 nM.
As for `Cc1nc2cc3nc(N)[nH]c(=O)c3cc2[nH]1` [lin-benzoguanine scaffold, 4], the figure is 1500 nM; as for `Nc1nc2cc3[nH]c(NCCN4CCOCC4)nc3cc2c(=O)[nH]1` [lin-benzoguanine scaffold, 9], 6 nM; as for `CN(Cc1ccccc1)c1ccc2c(=O)[nH]c(N)nc2c1` [Quinazolinone scaffold, 2], 7600 nM.
As for `Nc1nc2cc3nc(NCCc4ccccc4)[nH]c3cc2c(=O)[nH]1` [lin-benzoguanine scaffold, 10], the Ki was found to be 10 nM. Against the preceding molecule, the Ki is about 760-fold lower.
As for `Nc1nc2cc3nc[nH]c3cc2c(=O)[nH]1` [lin-benzoguanine scaffold, 3], the figure is 4100 nM; as for `Nc1nc2cc3nc(NCc4cccs4)[nH]c3cc2c(=O)[nH]1` [lin-benzoguanine scaffold, 7], 3.5 nM.
For the molecule `Nc1nc2cc3nc(NCc4cccc5ccccc45)[nH]c3cc2c(=O)[nH]1` [lin-benzoguanine scaffold, 8], affinity was put at a Ki of 5.5 nM. This Ki lies about 1.6-fold higher than the previous one.
